Bridge positions count the residues as written; N and C are the ends. Square brackets hold non-standard residues; d marks the D form. Peptide text beside a SMILES is read from it. ξ: configuration not given here. Gly(N-CH2CH2C6H4-4Cl) = O=C(O)CNCCc1ccc(Cl)cc1; Gly(N-piperonyl) = O=C(O)CNCc1ccc2c(c1)OCO2; Nrpe = C[C@@H](NCC(=O)O)c1ccccc1; NFurfurylGly = O=C(O)CNCc1ccco1; ξE = NC(CCC(=O)O)C(=O)O; Nleu = CC(C)CNCC(=O)O; Nlys = NCCCCNCC(=O)O; Nme = COCCNCC(=O)O
Key:
wild-type CD4+ T cells = assay: Binding of quantum dot-labeled T cells to peptoid resynthesized on beads; set-up: species or system mice
[1] = test system: MBP Ac1-11 specific T cells (Vα2.3/Vβ8.2 TCR transgenic); assay: DOPA chemical cross-linking, streptavidin staining, mean fluorescence intensity; set-up: species or system mice; details: biotin-labeled DOPA-peptoid, periodate cross-linking, CD4+/streptavidin+ cells; read-out: Kr, of binding to MBP Ac1-11 specific T cells
[2] = test system: Myelin Oligodendrocyte Glycoprotein (MOG) 35-55 specific TCR transgenic T cells; assay: Antigen-stimulated T cell proliferation, CFSE dilution by flow cytometry; type: cell-based
B cells = assay: B cell proliferation; type: cell-based
[3] = test system: CD4+ T cells from MBP Ac1-11 TCR transgenic mice; assay: Binding of quantum dot-labeled T cells to peptoid resynthesized on beads; details: red quantum dot-labeled
Description: To determine whether AG12A was binding to the autoreactive TCR, the inventors took advantage of the existence of transgenic mice, in which the vast majority of CD4+ T cells express the MBP Ac1-11 specific TCR (Vα2.3/Vβ8.2 TCR) (Goveman et al., 1993). CD4+ T cells were isolated from these mice and tested for binding to AG12A. This was done in several ways. First, AG12A was resynthesized on beads, as was a control peptoid not selected as a T cell ligand. The beads were then incubated with red quantum dot-labeled T cells.

[4] = biological target: pemphigus vulgaris autoantibody (Dsg3); assay: Solution binding to pemphigus vulgaris autoantibody; details: pemphigus vulgaris autoantibody to the Dsg autoantigen; read-out: binding affinity in solution

| SMILES | binding of T cells to peptoid displayed on beads (wild-type CD4+ T cells) | Kd [1] [µM] | inhibition of antigen-stimulated proliferation of MOG 35-55 specific TCR transgenic T cells [2] | inhibition of proliferation of B cells (B cells) | binding of T cells to peptoid displayed on beads [3] | Kd [4] [µM] |
| --- | --- | --- | --- | --- | --- | --- |
| CC(C)CNCC(=O)N(CCCCN)CC(=O)N(CC(=O)N(CC(=O)N(CCCCN)CC(=O)N(CC(=O)N(CCCCN)CC(=O)N(CCCCN)CC(N)=O)CC(C)C)[C@H](C)c1ccccc1)Cc1ccco1 [AG12A] (H-[Nleu][Nlys][NFurfurylGly][Nrpe][Nlys][Nleu][Nlys][Nlys]-NH2; C-terminus assumed) | did not | ~40 | did not inhibit | nor did AG12A inhibit proliferation of B cells | bound to AG12A displayed on beads | – |
| COCCN1CC(=O)N(CCCCN)CC(=O)N(Cc2ccc3c(c2)OCO3)CC(=O)N(CCc2ccc(Cl)cc2)CC(=O)NC(C(N)=O)CCC1=O (stereo not drawn) [compound 1a] ([Nme][Nlys][Gly(N-piperonyl)][Gly(N-CH2CH2C6H4-4Cl)][ξE]-NH2; lactam N-5) | – | – | – | – | – | ~10 |

Reference: patent US9458199B2, “Antigen surrogates in autoimmune disease” (OPKO Pharmaceuticals, LLC, priority 2011, dated 2016)
